Assays:
Assay in all cases: cells
NCI-H1623 = type: functional, cell-based, Homo sapiens; conditions: Homo sapiens, NCI-H1623;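 further: cell viability assay used as the read-out for growth inhibition of NCI-H1623 cells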
Description: SANGER: Inhibition of human NCI-H1623 cell growth in a cell viability assay.

A204 = type: functional, cell-based, Homo sapiens; conditions: Homo sapiens, A204;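 further: growth inhibition of human A204 cells, read out with a cell viability assay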
Description: SANGER: Inhibition of human A204 cell growth in a cell viability assay.

TYK-nu = type: functional, cell-based, Homo sapiens; conditions: Homo sapiens, TYK-nu;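 further: growth inhibition of human TYK-nu cells, read out by a cell viability assay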
Description: SANGER: Inhibition of human TYK-nu cell growth in a cell viability assay.

FTC-133 = type: functional, cell-based, Homo sapiens; conditions: Homo sapiens, FTC-133
PANC-08-13 = type: functional, cell-based, Homo sapiens; conditions: Homo sapiens, PANC-08-13;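 further: cell growth inhibition, measured with a cell viability assay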
Description: SANGER: Inhibition of human PANC-08-13 cell growth in a cell viability assay.

MFE-280 = type: functional, cell-based, Homo sapiens; conditions: Homo sapiens, MFE-280;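 further: growth inhibition of MFE-280 cells, determined with a cell viability readout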
Description: SANGER: Inhibition of human MFE-280 cell growth in a cell viability assay.

MHH-ES-1 = type: functional, cell-based, Homo sapiens; conditions: Homo sapiens, MHH-ES-1;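 further: cell growth inhibition measured by a cell viability assay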
Description: SANGER: Inhibition of human MHH-ES-1 cell growth in a cell viability assay.

K5 = type: functional, cell-based, Homo sapiens; conditions: Homo sapiens, K5
Description: SANGER: Inhibition of human K5 cell growth in a cell viability assay.

Lu-65 = type: functional, cell-based; conditions: Homo sapiens;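 further: growth inhibition of Lu-65 cancer cells, read out by a cell viability assay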
Description: SANGER: Inhibition of human LU-65 cell growth in a cell viability assay.

HTC-C3 = type: functional, cell-based, Homo sapiens; conditions: Homo sapiens, HTC-C3;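 further: inhibition of cell growth, read out with a cell viability assay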
Description: SANGER: Inhibition of human HTC-C3 cell growth in a cell viability assay.

SK-MEL-28 = type: functional, cell-based; conditions: Homo sapiens;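 further: growth inhibition of human SK-MEL-28 cells, read out with a cell viability assay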
Description: SANGER: Inhibition of human SK-MEL-28 cell growth in a cell viability assay.

KALS-1 = type: functional, cell-based, Homo sapiens; conditions: Homo sapiens, KALS-1;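 further: growth inhibition of KALS-1 cells, determined with a cell viability assay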
Description: SANGER: Inhibition of human KALS-1 cell growth in a cell viability assay.

LNCaP-Clone-FGC = type: functional, cell-based, Homo sapiens; conditions: Homo sapiens, LNCaP-Clone-FGC
Description: SANGER: Inhibition of human LNCaP-Clone-FGC cell growth in a cell viability assay.

TGBC24TKB = type: functional, cell-based, Homo sapiens; conditions: Homo sapiens, TGBC24TKB;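 further: growth inhibition of human TGBC24TKB cells, read out with a cell viability assay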
Description: SANGER: Inhibition of human TGBC24TKB cell growth in a cell viability assay.

KMOE-2 = type: functional, cell-based; conditions: Homo sapiens;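 further: growth inhibition of human KMOE-2 cells, read out with a cell viability assay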
Description: SANGER: Inhibition of human KMOE-2 cell growth in a cell viability assay.

SW982 = type: functional, cell-based; conditions: Homo sapiens;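 further: growth inhibition of SW982 cells, read out with a cell viability assay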
Description: SANGER: Inhibition of human SW982 cell growth in a cell viability assay.

DoTc2-4510 = type: functional, cell-based, Homo sapiens; conditions: Homo sapiens, DoTc2-4510
NCI-H2030 = type: functional, cell-based, Homo sapiens; conditions: Homo sapiens, NCI-H2030;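 further: growth inhibition of human NCI-H2030 cells, read out by a cell viability assay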
Description: SANGER: Inhibition of human NCI-H2030 cell growth in a cell viability assay.

KYSE-510 = type: functional, cell-based, Homo sapiens; conditions: Homo sapiens, KYSE-510;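 further: cell viability readout used to measure how strongly growth of the cell line is suppressed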
Description: SANGER: Inhibition of human KYSE-510 cell growth in a cell viability assay.

SW13 = type: functional, cell-based, Homo sapiens; conditions: Homo sapiens, SW13;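 further: IC50 is inhibition of SW13 cell growth, read out with a cell viability assay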
Description: SANGER: Inhibition of human SW13 cell growth in a cell viability assay.

A4-Fuk = type: functional, cell-based; conditions: Homo sapiens;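 further: growth inhibition of A4-Fuk cells, read out by a cell viability assay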
Description: SANGER: Inhibition of human A4-Fuk cell growth in a cell viability assay.

NCI-H2126 = type: functional, cell-based, Homo sapiens; conditions: Homo sapiens, NCI-H2126;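 further: growth inhibition of the cancer cell line, determined with a cell viability readout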
Description: SANGER: Inhibition of human NCI-H2126 cell growth in a cell viability assay.

Detroit 562 = type: functional, cell-based, Homo sapiens; conditions: Homo sapiens, Detroit 562;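 further: growth inhibition of human Detroit 562 cells, read out by a cell viability assay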
Description: SANGER: Inhibition of human Detroit562 cell growth in a cell viability assay.

RT-112 = type: functional, cell-based, Homo sapiens; conditions: Homo sapiens, RT-112
Description: SANGER: Inhibition of human RT-112 cell growth in a cell viability assay.

D-392MG = type: functional, cell-based, Homo sapiens; conditions: Homo sapiens, D-392MG
HCC1419 = type: functional, cell-based, Homo sapiens; conditions: Homo sapiens, HCC1419;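 further: growth inhibition of human HCC1419 cells, read out as cell viability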
Description: SANGER: Inhibition of human HCC1419 cell growth in a cell viability assay.

LU-139 = type: functional, cell-based; conditions: Homo sapiens
Description: SANGER: Inhibition of human LU-139 cell growth in a cell viability assay.

SNU-387 = type: functional, cell-based, Homo sapiens; conditions: Homo sapiens, SNU-387
Description: SANGER: Inhibition of human SNU-387 cell growth in a cell viability assay.

Ca-Ski = type: functional, cell-based; conditions: Homo sapiens;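 further: cell viability assay measuring inhibition of Ca-Ski cell growth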
Description: SANGER: Inhibition of human Ca-Ski cell growth in a cell viability assay.

ATN-1 = type: functional, cell-based; conditions: Homo sapiens;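 further: growth inhibition of human ATN-1 cells, read out with a cell viability assay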
Description: SANGER: Inhibition of human ATN-1 cell growth in a cell viability assay.

MKN-1 = type: functional, cell-based, Homo sapiens; conditions: Homo sapiens, MKN-1;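 further: growth inhibition of human MKN1 cells, read out by a cell viability measurement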
Description: SANGER: Inhibition of human MKN1 cell growth in a cell viability assay.

NCI-H526 = type: functional, cell-based; conditions: Homo sapiens;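 further: growth inhibition of the human NCI-H526 cell line, measured by a cell viability assay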
Description: SANGER: Inhibition of human NCI-H526 cell growth in a cell viability assay.

CAL-51 = type: functional, cell-based, Homo sapiens; conditions: Homo sapiens, CAL-51;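 further: human CAL-51 cell line, growth inhibition read out via a cell viability assay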
Description: SANGER: Inhibition of human CAL-51 cell growth in a cell viability assay.

ASPC1 = type: functional, cell-based, Homo sapiens; conditions: Homo sapiens, ASPC1;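 further: growth inhibition of AsPC-1 cells, read out with a cell viability assay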
Description: SANGER: Inhibition of human AsPC-1 cell growth in a cell viability assay.

SCH = type: functional, cell-based, Homo sapiens; conditions: Homo sapiens, SCH;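 further: growth inhibition of human SCH cells, read out in a cell viability assay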
Description: SANGER: Inhibition of human SCH cell growth in a cell viability assay.

KYSE-450 = type: functional, cell-based; conditions: Homo sapiens;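 further: cell growth inhibition measured by a viability assay in human KYSE-450 cells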
Description: SANGER: Inhibition of human KYSE-450 cell growth in a cell viability assay.

NCI-H747 = type: functional, cell-based; conditions: Homo sapiens;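 further: growth inhibition of human NCI-H747 cells, read out by a cell viability assay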
Description: SANGER: Inhibition of human NCI-H747 cell growth in a cell viability assay.

LB2241-RCC = type: functional, cell-based, Homo sapiens; conditions: Homo sapiens, LB2241-RCC;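 further: cell viability assay measuring how strongly the cultured human renal carcinoma line is prevented from growing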
Description: SANGER: Inhibition of human LB2241-RCC cell growth in a cell viability assay.

M059J = type: functional, cell-based, Homo sapiens; conditions: Homo sapiens, M059J;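 further: growth inhibition of M059J cells, read out with a cell viability assay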
Description: SANGER: Inhibition of human M059J cell growth in a cell viability assay.

KYSE-270 = type: functional, cell-based, Homo sapiens; conditions: Homo sapiens, KYSE-270;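 further: cell growth inhibition measured with a viability assay in the human KYSE-270 line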
Description: SANGER: Inhibition of human KYSE-270 cell growth in a cell viability assay.

DB = type: functional, cell-based; conditions: Homo sapiens
Description: SANGER: Inhibition of human DB cell growth in a cell viability assay.

IA-LM = type: functional, cell-based, Homo sapiens; conditions: Homo sapiens, IA-LM;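 further: cell viability assay measuring growth inhibition of human IA-LM cells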
Description: SANGER: Inhibition of human IA-LM cell growth in a cell viability assay.

TE-12 = type: functional, cell-based; conditions: Homo sapiens;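 further: growth inhibition of TE-12 cells, read out by a cell viability assay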
Description: SANGER: Inhibition of human TE-12 cell growth in a cell viability assay.

HC-1 = type: functional, cell-based; conditions: Homo sapiens;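 further: growth inhibition of HC-1 cells measured by a cell viability assay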
Description: SANGER: Inhibition of human HC-1 cell growth in a cell viability assay.

LXF-289 cell line = type: functional, cell-based, Homo sapiens; conditions: Homo sapiens, LXF-289
Description: SANGER: Inhibition of human LXF-289 cell growth in a cell viability assay.

SCC-25 = type: functional, cell-based, Homo sapiens; conditions: Homo sapiens, SCC-25;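 further: growth inhibition of SCC-25 cells, measured with a cell viability assay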
Description: SANGER: Inhibition of human SCC-25 cell growth in a cell viability assay.

PFSK-1 = type: functional, cell-based, Homo sapiens; conditions: Homo sapiens, PFSK-1;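 further: cell viability assay measuring how strongly compounds suppress growth of human PFSK-1 cells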
Description: SANGER: Inhibition of human PFSK-1 cell growth in a cell viability assay.

GCT = type: functional, cell-based, Homo sapiens; conditions: Homo sapiens, GCT;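 further: GCT cell line proliferation inhibition, read out with a cell viability assay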
Description: SANGER: Inhibition of human GCT cell growth in a cell viability assay.

ES4 = type: functional, cell-based, Homo sapiens; conditions: Homo sapiens, ES4;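 further: growth inhibition of human ES4 cells, read out by a cell viability assay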
Description: SANGER: Inhibition of human ES4 cell growth in a cell viability assay.

HT = type: functional, cell-based; conditions: Homo sapiens
Description: SANGER: Inhibition of human HT cell growth in a cell viability assay.

TGBC1TKB = type: functional, cell-based, Homo sapiens; conditions: Homo sapiens, TGBC1TKB;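 further: growth inhibition of TGBC1TKB cells, read out by a cell viability assay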
Description: SANGER: Inhibition of human TGBC1TKB cell growth in a cell viability assay.

CAL-12T = type: functional, cell-based, Homo sapiens; conditions: Homo sapiens, CAL-12T;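 further: growth inhibition of human CAL-12T cells, read out with a cell viability assay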
Description: SANGER: Inhibition of human CAL-12T cell growth in a cell viability assay.

SMILES: Cn1cncc1[C@@](N)(c1ccc(Cl)cc1)c1ccc2c(c1)c(-c1cccc(Cl)c1)cc(=O)n2C [TIPIFARNIB]
- IC50 (NCI-H1623): > 16000 nM
- IC50 (A204): 3580 nM
- IC50 (TYK-nu): > 16000 nM
- IC50 (FTC-133): > 16000 nM
- IC50 (PANC-08-13): > 16000 nM
- IC50 (MFE-280): > 16000 nM
- IC50 (MHH-ES-1): 5270 nM
- IC50 (K5): > 16000 nM
- IC50 (Lu-65): > 16000 nM
- IC50 (HTC-C3): 4830 nM
- IC50 (SK-MEL-28): > 16000 nM
- IC50 (KALS-1): > 16000 nM
- IC50 (LNCaP-Clone-FGC): 11500 nM
- IC50 (TGBC24TKB): > 16000 nM
- IC50 (KMOE-2): 5180 nM
- IC50 (SW982): > 16000 nM
- IC50 (DoTc2-4510): 1680 nM
- IC50 (NCI-H2030): 2350 nM
- IC50 (KYSE-510): 977 nM
- IC50 (SW13): 3600 nM
- IC50 (A4-Fuk): 20.6 nM
- IC50 (NCI-H2126): > 16000 nM
- IC50 (Detroit 562): 4070 nM
- IC50 (RT-112): 382 nM
- IC50 (D-392MG): > 16000 nM
- IC50 (HCC1419): 4650 nM
- IC50 (LU-139): > 16000 nM
- IC50 (SNU-387): 7060 nM
- IC50 (Ca-Ski): 9170 nM
- IC50 (ATN-1): 2540 nM
- IC50 (MKN-1): 1880 nM
- IC50 (NCI-H526): > 16000 nM
- IC50 (CAL-51): 3530 nM
- IC50 (ASPC1): > 16000 nM
- IC50 (SCH): > 16000 nM
- IC50 (KYSE-450): 729 nM
- IC50 (NCI-H747): 2660 nM
- IC50 (LB2241-RCC): 6160 nM
- IC50 (M059J): > 16000 nM
- IC50 (KYSE-270): 217 nM
- IC50 (DB): 10700 nM
- IC50 (IA-LM): 47.5 nM
- IC50 (TE-12): 2820 nM
- IC50 (HC-1): 1750 nM
- IC50 (LXF-289 cell line): 4130 nM
- IC50 (SCC-25): 5910 nM
- IC50 (PFSK-1): > 16000 nM
- IC50 (GCT): > 16000 nM
- IC50 (ES4): 1280 nM
- IC50 (HT): 8290 nM
- IC50 (TGBC1TKB): > 16000 nM
- IC50 (CAL-12T): 760 nM

SMILES: CCC1=C[C@@H]2CN(C1)Cc1c([nH]c3ccccc13)[C@@](C(=O)OC)(c1cc3c(cc1OC)N(C)[C@H]1[C@@](O)(C(=O)OC)[C@H](OC(C)=O)[C@]4(CC)C=CCN5CC[C@]31[C@@H]54)C2 [VINORELBINE]
- IC50 (NCI-H1623): 28.5 nM
- IC50 (A204): 3.21 nM
- IC50 (TYK-nu): > 64 nM
- IC50 (FTC-133): > 64 nM
- IC50 (PANC-08-13): 46.9 nM
- IC50 (MFE-280): > 64 nM
- IC50 (MHH-ES-1): 3.89 nM
- IC50 (K5): 41.9 nM
- IC50 (Lu-65): 24.5 nM
- IC50 (HTC-C3): 26.5 nM
- IC50 (SK-MEL-28): > 64 nM
- IC50 (KALS-1): 3.9 nM
- IC50 (LNCaP-Clone-FGC): 17.9 nM
- IC50 (TGBC24TKB): 20.1 nM
- IC50 (KMOE-2): > 64 nM
- IC50 (SW982): 5.3 nM
- IC50 (DoTc2-4510): 3.59 nM
- IC50 (NCI-H2030): 3.62 nM
- IC50 (KYSE-510): 4.19 nM
- IC50 (SW13): 4.72 nM
- IC50 (A4-Fuk): 4.04 nM
- IC50 (NCI-H2126): 29.3 nM
- IC50 (Detroit 562): 7.55 nM
- IC50 (RT-112): 3.37 nM
- IC50 (D-392MG): > 64 nM
- IC50 (HCC1419): > 64 nM
- IC50 (LU-139): 52.9 nM
- IC50 (SNU-387): 10.2 nM
- IC50 (Ca-Ski): 19.1 nM
- IC50 (ATN-1): 1.94 nM
- IC50 (MKN-1): 11.8 nM
- IC50 (NCI-H526): 8.68 nM
- IC50 (CAL-51): 8.61 nM
- IC50 (ASPC1): > 64 nM
- IC50 (SCH): > 64 nM
- IC50 (KYSE-450): 9.74 nM
- IC50 (NCI-H747): > 64 nM
- IC50 (LB2241-RCC): > 64 nM
- IC50 (M059J): 14.1 nM
- IC50 (KYSE-270): 3.16 nM
- IC50 (DB): 19.4 nM
- IC50 (IA-LM): 3.71 nM
- IC50 (TE-12): > 64 nM
- IC50 (HC-1): 3.89 nM
- IC50 (LXF-289 cell line): 4.68 nM
- IC50 (SCC-25): 12.5 nM
- IC50 (PFSK-1): 20.5 nM
- IC50 (GCT): 50.8 nM
- IC50 (ES4): > 64 nM
- IC50 (HT): 21.6 nM
- IC50 (TGBC1TKB): > 64 nM
- IC50 (CAL-12T): 20.8 nM
